Measurements: ChEMBL document CHEMBL3885861, “Open TG-GATES”
*1 amine or outer side, *2 acyl side, *3 side chain or, on linkers, in order; H or OH if unused. Where a SMILES comes first, the peptide text is derived from it. Bridges are numbered along the chain shown (N, C = ends). [ ]: non-standard residue; d: D form. Trp(2-yl) = O=C([C@H](Cc1c([*:3])[nH]c2ccccc12)N[*:1])[*:2]; Leu(4R-OH,5-OH) = C[C@](O)(CO)C[C@H](N)C(=O)O; cisHyp = O=C(O)[C@@H]1C[C@H](O)CN1

Species: Rattus norvegicus
Assay: Open TG-GATES - Regimen: Single
Format: toxicity, organism-based, Sprague-Dawley
Parameters: regimen Single, gender Male, age 6 weeks
Details: in vivo, ip, 0 mg/kg, route intraperitoneal injection, dose level Control; for APTT / Bas / Eos / Fbg / Hb / Ht / Lym / MCH / MCHC / MCV / Mono / Neu / PT / Plat / RBC / Ret / WBC: tissue Blood; for KIDNEY_L / KIDNEY_R / KIDNEY_TOTAL: tissue Kidney; for LIVER: tissue Liver; for A/G / ALP / ALT / AST / BUN / CRE / Ca / Cl / DBIL / GLC / IP / K / LDH / Na / PL / RALB / TBIL / TC / TG / TP / gamma-GTP: tissue Plasma

SMILES: C[C@@H]1NC(=O)[C@H](C[C@@](C)(O)CO)NC(=O)[C@@H]2Cc3c([nH]c4ccccc34)SC[C@H](NC(=O)[C@@H]([C@H](C)O)NC1=O)C(=O)N1C[C@@H](O)C[C@H]1C(=O)N[C@@H](C)C(=O)N2 [PHALLOIDIN] (cyclo(A[dT]C[cisHyp]A[Trp(2-yl)][Leu(4R-OH,5-OH)]); thioether 3-6)
- TERMINAL_BW (3 h): 206 g
- APTT (3 h): 23.6 s
- Bas (3 h): 0%
- Eos (3 h): 0.2%
- Fbg (3 h): 283.8 mg/dL
- Hb (3 h): 12.9 g/dL
- Ht (3 h): 40.5%
- Lym (3 h): 73.8%
- MCH (3 h): 20.1 pg
- MCHC (3 h): 32%
- MCV (3 h): 62.8 fL
- Mono (3 h): 2.4%
- Neu (3 h): 22.8%
- PT (3 h): 16.1 s
- Plat (3 h): 112.9 x10_4/uL
- RBC (3 h): 645 x10_4/ul
- Ret (3 h): 7.5%
- WBC (3 h): 74.9 x10_2/uL
- KIDNEY_L (3 h): 0.9 g
- KIDNEY_R (3 h): 0.9 g
- KIDNEY_TOTAL (3 h): 1.8 g
- LIVER (3 h): 8.6 g
- A/G (3 h): 1.2
- ALP (3 h): 1620.6 IU/L
- ALT (3 h): 45.2 IU/L
- AST (3 h): 76.4 IU/L
- BUN (3 h): 11.2 mg/dL
- CRE (3 h): 0.2 mg/dL
- Ca (3 h): 10.4 mg/dL
- Cl (3 h): 108.6 meq/L
- DBIL (3 h): 0 mg/dL
- GLC (3 h): 187.8 mg/dL
- IP (3 h): 8.4 mg/dL
- K (3 h): 3.8 meq/L
- LDH (3 h): 165.2 IU/L
- Na (3 h): 141.8 meq/L
- PL (3 h): 132 mg/dL
- RALB (3 h): 2.8 g/dL
- TBIL (3 h): 0 mg/dL
- TC (3 h): 81 mg/dL
- TG (3 h): 66.2 mg/dL
- TP (3 h): 5.2 g/dL
- gamma-GTP (3 h): 1 IU/L
- TERMINAL_BW (6 h): 208.8 g
- APTT (6 h): 22.5 s
- Bas (6 h): 0%
- Eos (6 h): 0.4%
- Fbg (6 h): 305.6 mg/dL
- Hb (6 h): 12.5 g/dL
- Ht (6 h): 38.7%
- Lym (6 h): 79.6%
- MCH (6 h): 20.4 pg
- MCHC (6 h): 32.2%
- MCV (6 h): 63.4 fL
- Mono (6 h): 1.8%
- Neu (6 h): 17.2%
- PT (6 h): 16 s
- Plat (6 h): 126.1 x10_4/uL
- RBC (6 h): 611.2 x10_4/ul
- Ret (6 h): 7.3%
- WBC (6 h): 94.6 x10_2/uL
- KIDNEY_L (6 h): 0.9 g
- KIDNEY_R (6 h): 0.9 g
- KIDNEY_TOTAL (6 h): 1.8 g
- LIVER (6 h): 9.1 g
- A/G (6 h): 1.2
- ALP (6 h): 1368 IU/L
- ALT (6 h): 38 IU/L
- AST (6 h): 69 IU/L
- BUN (6 h): 15.6 mg/dL
- CRE (6 h): 0.2 mg/dL
- Ca (6 h): 10.5 mg/dL
- Cl (6 h): 106.2 meq/L
- DBIL (6 h): 0 mg/dL
- GLC (6 h): 195.8 mg/dL
- IP (6 h): 7.8 mg/dL
- K (6 h): 4.2 meq/L
- LDH (6 h): 168.6 IU/L
- Na (6 h): 141.2 meq/L
- PL (6 h): 137 mg/dL
- RALB (6 h): 2.8 g/dL
- TBIL (6 h): 0 mg/dL
- TC (6 h): 82 mg/dL
- TG (6 h): 63 mg/dL
- TP (6 h): 5.2 g/dL
- gamma-GTP (6 h): 1.4 IU/L
- TERMINAL_BW (9 h): 208.4 g
- APTT (9 h): 22.5 s
- Bas (9 h): 0%
- Eos (9 h): 0.4%
- Fbg (9 h): 290.4 mg/dL
- Hb (9 h): 12.5 g/dL
- Ht (9 h): 39.2%
- Lym (9 h): 79.4%
- MCH (9 h): 20.4 pg
- MCHC (9 h): 31.9%
- MCV (9 h): 63.8 fL
- Mono (9 h): 1.6%
- Neu (9 h): 18%
- PT (9 h): 15.9 s
- Plat (9 h): 120.7 x10_4/uL
- RBC (9 h): 613.6 x10_4/ul
- Ret (9 h): 7.1%
- WBC (9 h): 83.1 x10_2/uL
- KIDNEY_L (9 h): 0.9 g
- KIDNEY_R (9 h): 1 g
- KIDNEY_TOTAL (9 h): 1.9 g
- LIVER (9 h): 9.2 g
- A/G (9 h): 1.2
- ALP (9 h): 1788.6 IU/L
- ALT (9 h): 45.2 IU/L
- AST (9 h): 75.4 IU/L
- BUN (9 h): 13.4 mg/dL
- CRE (9 h): 0.2 mg/dL
- Ca (9 h): 10.5 mg/dL
- Cl (9 h): 105 meq/L
- DBIL (9 h): 0 mg/dL
- GLC (9 h): 202.8 mg/dL
- IP (9 h): 7.7 mg/dL
- K (9 h): 4.3 meq/L
- LDH (9 h): 145.6 IU/L
- Na (9 h): 140.8 meq/L
- PL (9 h): 134.8 mg/dL
- RALB (9 h): 2.9 g/dL
- TBIL (9 h): 0.004 mg/dL
- TC (9 h): 79 mg/dL
- TG (9 h): 71.2 mg/dL
- TP (9 h): 5.3 g/dL
- gamma-GTP (9 h): 1.4 IU/L
- TERMINAL_BW (24 h): 216 g
- APTT (24 h): 22.7 s
- Bas (24 h): 0%
- Eos (24 h): 0.6%
- Fbg (24 h): 321.6 mg/dL
- Hb (24 h): 12.3 g/dL
- Ht (24 h): 38.4%
- Lym (24 h): 83.8%
- MCH (24 h): 20.3 pg
- MCHC (24 h): 32.1%
- MCV (24 h): 63.4 fL
- Mono (24 h): 1.6%
- Neu (24 h): 13.4%
- PT (24 h): 16 s
- Plat (24 h): 120 x10_4/uL
- RBC (24 h): 606.2 x10_4/ul
- Ret (24 h): 7.7%
- WBC (24 h): 76.3 x10_2/uL
- KIDNEY_L (24 h): 1 g
- KIDNEY_R (24 h): 1 g
- KIDNEY_TOTAL (24 h): 2 g
- LIVER (24 h): 9.4 g
- A/G (24 h): 1.2
- ALP (24 h): 1563.4 IU/L
- ALT (24 h): 40.8 IU/L
- AST (24 h): 69 IU/L
- BUN (24 h): 14 mg/dL
- CRE (24 h): 0.2 mg/dL
- Ca (24 h): 10.5 mg/dL
- Cl (24 h): 105.4 meq/L
- DBIL (24 h): 0.002 mg/dL
- GLC (24 h): 196 mg/dL
- IP (24 h): 8.9 mg/dL
- K (24 h): 3.9 meq/L
- LDH (24 h): 182.4 IU/L
- Na (24 h): 141.6 meq/L
- PL (24 h): 144.2 mg/dL
- RALB (24 h): 2.9 g/dL
- TBIL (24 h): 0.002 mg/dL
- TC (24 h): 85.6 mg/dL
- TG (24 h): 55.4 mg/dL
- TP (24 h): 5.3 g/dL
- gamma-GTP (24 h): 1.8 IU/L
